Counter-ions that a name gives are not always drawn.
Assays:
neointima formation = conditions: in rats; Brooks E. E. et al., J. Biol. Chem. 1997; cited from earlier work
CDK2/cyclin A = CDK2/cyclin A (Homo sapiens, UniProt P24941); assay: Assay for Inhibition of CDK2/Cyclin A; type: biochemical; conditions: 20 ng CDK2/cyclin A, retinoblastoma protein substrate, [32P]ATP, 25° C. 15 minutes
Experimental: (§1) To determine the inhibitory potency and selectivity of compounds of the present invention against CDK4 and related kinases, compounds were evaluated in standard assays routinely used to measure inhibition of cyclin-dependent kinase enzymes and other protein kinases (see for example D. W. Fry et al., J. Biol. Chem. 2001, 276, 16617-16623). The assays were carried out as described below.
Assay for Inhibition of CDK2/Cyclin A
CDK2 enzyme assays for IC50 determinations and kinetic evaluation are performed as follows. 96-well filter plates (Millipore MADVN6550, Bedford, Mass.) are used. The final assay volume is 0.1 mL containing buffer A (20 mM TRIS (tris[hydroxymethyl]aminomethane) (pH 7.4), 50 mM NaCl, 1 mM dithiothreitol, 10 mM MgCl2), […] ATP containing 0.25 μCi [^32P]ATP, 20 ng CDK2/cyclin A, 1 μg retinoblastoma protein, and the test compound at appropriate dilutions in buffer A (Buffer A alone without added test compound was employed as a control for no inhibition. Buffer A containing excess ethylenediamine tetra acetic acid (EDTA) was used to determine the level of background ^32P in the absence of enzyme activity). All components except the ATP are added to the wells, and the plate is placed on a plate mixer for 2 minutes. The reaction is initiated by addition of [^32P]ATP, and the plate is incubated at 25° C. for 15 minutes. The reaction is terminated by addition of 0.1 mL 20% trichloroacetic acid (TCA). The plate is kept at 4° C. for at least 1 hour to allow the substrate to precipitate. The wells are then washed five times with 0.2 mL 10% TCA, and ^32P incorporation is determined with a beta plate counter (Wallac Inc., Gaithersburg, Md.). The IC50 of the test compound was determined using the median effect method (Chou, T-C and Talalay, P. Applications of the median effect principle for the assessment of low-dose risk of carcinogens and for the quantitation of synergism and antagonism of chemotherapeutic agents. In: New Avenues in Developmental Cancer Chemotherapy (Eds. Harrap, K. T. and Connors, T. A.), pp. 37-64. Academic Press, New York, 1987).

CDK4/Cyclin D = CDK4/Cyclin D (Homo sapiens, UniProt P11802); assay: Assay for Inhibition of CDK4/Cyclin D; type: biochemical; conditions: 20 ng CDK4, retinoblastoma protein substrate, 25 μM ATP, 25° C. 15 minutes
CDK4/Cyclin D, sequence (P11802 whole entry, species assumed): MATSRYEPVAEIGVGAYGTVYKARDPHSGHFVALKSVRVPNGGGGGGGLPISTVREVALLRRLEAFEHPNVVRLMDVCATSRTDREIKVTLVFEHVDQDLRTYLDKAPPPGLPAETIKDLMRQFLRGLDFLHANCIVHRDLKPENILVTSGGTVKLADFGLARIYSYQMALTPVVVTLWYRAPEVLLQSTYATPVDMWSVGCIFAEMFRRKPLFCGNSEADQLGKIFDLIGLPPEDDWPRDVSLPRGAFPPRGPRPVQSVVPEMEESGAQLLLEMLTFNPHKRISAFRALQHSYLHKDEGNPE
CDK4/Cyclin D, sequence (P24385 whole entry partner, species assumed): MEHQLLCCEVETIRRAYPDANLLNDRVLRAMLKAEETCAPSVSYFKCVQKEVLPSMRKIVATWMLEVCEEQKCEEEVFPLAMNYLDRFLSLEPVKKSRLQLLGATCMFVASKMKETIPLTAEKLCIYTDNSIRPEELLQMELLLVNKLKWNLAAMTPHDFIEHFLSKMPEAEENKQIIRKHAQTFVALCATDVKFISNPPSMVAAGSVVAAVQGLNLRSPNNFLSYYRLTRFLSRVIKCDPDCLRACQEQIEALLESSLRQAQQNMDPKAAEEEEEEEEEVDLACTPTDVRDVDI
Experimental: as §1
Assay for Inhibition of CDK4/Cyclin D
The CDK4 enzyme assay for IC50 determination and kinetic evaluation is performed as follows. 96-well filter plates (Millipore MADVN6550, Bedford, Mass.) are used. The total volume is 0.1 mL containing buffer A (20 mM TRIS (tris[hydroxymethyl]aminomethane)) (pH 7.4), 50 mM NaCl, 1 mM dithiothreitol, 10 mM MgCl2), 25 μM ATP containing 0.25 μCi [^32P]ATP, 20 ng CDK4, 1 μg retinoblastoma protein and the test compound at appropriate dilutions in buffer A. Buffer A alone without added test compound was employed as a control for no inhibition. Buffer A containing excess EDTA was used to determine the level of background ^32P in the absence of enzyme activity. All components except the ATP are added to the wells, and the plate is placed on a plate mixer for 2 minutes. The reaction is started by adding [^32P]ATP, and the plate is incubated at 25° C. for 15 minutes. The reaction is terminated by addition of 0.1 mL 20% trichloroacetic acid (TCA). The plate is kept at 4° C. for at least 1 hour to allow the substrate to precipitate. The wells are then washed five times with 0.2 mL 10% TCA, and ^32P incorporation is determined with a beta plate counter (Wallac Inc., Gaithersburg, Md.). The IC50 of the test compound was determined using the median effect method (Chou, T-C and Talalay, P. Applications of the median effect principle for the assessment of low-dose risk of carcinogens and for the quantitation of synergism and antagonism of chemotherapeutic agents. In: New Avenues in Developmental Cancer Chemotherapy (Eds. Harrap, K. T. and Connors, T. A.), pp. 37-64. Academic Press, New York, 1987).

Row | IC50 (CDK2/cyclin A) [nM] | IC50 (CDK4/Cyclin D) [nM] | melting point [°C] | SMILES | inhibition of neointima formation (neointima formation)
1 |  |  |  | COc1ccc(CNc2nc(N(CCO)CCO)nc3c2ncn3C(C)C)cc1 [CVT-313] | greater than 80%
2 | 235 | 535 | 156 to 158 | CC(C)n1c(=O)ccc2cnc(Nc3cccnc3)nc21 [Example 1, 8-Isopropyl-2-(pyridin-3-ylamino)-8H-pyrido[2,3-d]pyrimidin-7-one] | 
3 | 29 | 82 | 181 to 182 | COc1ccc(Nc2ncc3ccc(=O)n(C4CCCC4)c3n2)cn1 [Example 2, 8-Cyclopentyl-2-(6-methoxy-pyridin-3-ylamino)-8H-pyrido[2,3-d]pyrimidin-7-one] | 
4 | 190 | 12 |  | O=c1c(Br)cc2cnc(Nc3ccc(N4CCNCC4)nc3)nc2n1C1CCCC1 [Example 3, 6-Bromo-8-cyclopentyl-2-(6-piperazin-1-yl-pyridin-3-ylamino)-8H-pyrido[2,3-d]pyrimidin-7-one hydrochloride salt] | 
5 | 1020 | 99 | 254 to 256 | Cc1c(Br)c(=O)n(C2CCCC2)c2nc(Nc3ccc(N4CCOCC4)nc3)ncc12 [Example 4, 6-Bromo-8-cyclopentyl-5-methyl-2-(6-morpholin-4-yl-pyridin-3-ylamino)-8H-pyrido[2,3-d]pyrimidin-7-one] | 
6 |  |  | 224 to 226 | CC(=O)c1c(C)c2cnc(Nc3ccc(N4CCOCC4)nc3)nc2n(C2CCCC2)c1=O [Example 5, 6-Acetyl-8-cyclopentyl-5-methyl-2-(6-morpholin-4-yl-pyridin-3-ylamino)-8H-pyrido[2,3-d]pyrimidin-7-one] | 
7 | 3200 | 22 | 290 | Cc1c(Br)c(=O)n(C2CCCC2)c2nc(Nc3ccc(N4CCNCC4)nc3)ncc12 [Example 6, 6-Bromo-8-cyclopentyl-5-methyl-2-(6-piperazin-1-yl-pyridin-3-ylamino)-8H-pyrido[2,3-d]pyrimidin-7-one] | 
8 | 260 | 3 | 125 | CC(=O)c1c(C)c2cnc(Nc3ccc(N4CCNCC4)nc3)nc2n(C2CCCC2)c1=O [Example 7, 6-Acetyl-8-cyclopentyl-5-methyl-2-(6-piperazin-1-yl-pyridin-3-ylamino)-8H-pyrido[2,3-d]pyrimidin-7-one] | 
